pIC50: −log10 of the molar value.
Experiments:
CDK9/cyclinT1 = molecular target: T1, CDK9/cyclinT1 (Homo sapiens, UniProt P50750); experiment: CDK9/cyclinT1 IMAP fluorescence polarization kinase assay; format: biochemical; conditions: 6 μM ATP, two hours at room temperature
T1 construct: purchased Millipore
Procedure: (§1) Kinase assays were performed on recombinant purified enzymes using the non-radioactive IMAP fluorescence polarization assay format.
(§2) Compound stocks were prepared and diluted in DMSO and were added to kinase reactions at a 1/100 dilution for a final concentration of 1% DMSO. The components were added together to final concentrations listed in the tables below and incubated for two hours at room temperature.
(§3) The reactions were stopped by addition of stop solution.
(§4) CDK9/CDK1/CDK7: final stop concentration is 1× Developer buffer (85% A/15% B), IMAP beads 1/400
(§5) The samples were allowed to incubate for one more hour at room temperature and then the fluorescence polarization was measured. The plate normalized millipolarization (mP) values were plotted against the log of compound concentration for each compound and IC50 values were calculated using the spotfire IC50 calculator and confirmed by visual analysis.

CDK2/cyclinA = molecular target: T2, CDK2/cyclinA (Homo sapiens, UniProt P24941); experiment: CDK2/cyclinA IMAP fluorescence polarization kinase assay; format: biochemical; conditions: 4.68 μM ATP, two hours at room temperature
T2 construct: purchased Millipore
Procedure: as §1, §2, §3
CDK2: final stop concentration is 1× Developer buffer (100% A), IMAP beads 1/400
as §5

CDK1/cyclinB = molecular target: T3, CDK1/cyclinB (Homo sapiens, UniProt P06493); experiment: CDK1/cyclinB IMAP fluorescence polarization kinase assay; format: biochemical; conditions: 52 μM ATP, two hours at room temperature
T3 construct: purchased Millipore
Procedure: as §1, §2, §3, §4, §5

[1] = test system: RNA polymerase II CTD serine2 phosphorylation in Hep3B cells; experiment: H5 (Ser2) Ab High Content Screen: RNA polymerase II CTD serine2 phosphorylation Assay; format: cell-based; conditions: Homo sapiens, compounds for 2 hours, H5 antibody nuclear staining
Procedure: H5 (also referred as Ser2) Ab High Content Screen: RNA polymerase II CTD serine2 phosphorylation Assay
1. Cells are plated into 384 well plates: 30 μl of Hep3B cells (4,000 cells/30 μl) in DMEM with 3% FBS are plated into wells of a tissue culture treated clear bottomed 384 well plate. Cells are allowed to adhere during an overnight incubation.
2. Cells are treated with compounds for two hours: 10 μl of DMEM with 3% FBS is added to each well with a final concentration of DMSO equal to 1%. Cells are incubated with compounds for 2 hours.
3. Cells are fixed and permeabilized. Cells are washed with 30 mM HEPES pH=7.3 then fixed in 4% paraformaldehyde in 30 mM HEPES pH=7.3 for one hour at room temperature. The fix is removed by washing the cells with Tris buffered saline (TBS) and the cells are permeabilized by incubation in TBS with 0.5% triton X-100 for 30 minutes at room temperature. Triton is removed by washing the cells with TBS.
4. Cells are stained with H5 monoclonal antibody and nuclei are stained with Hoechst dye 33342: Block cells by incubating in TBS with 1% Bovine serum albumin (BSA) for one hour at room temperature. Incubate primary H5 Ab (1/250) overnight at 4 degrees in PBS with 1% BSA and 0.1% Tween-20. The next day wash cells with TBS. Add secondary antibody, anti-IgM labeled with cy5 (1/450), and Hoecsht dye 33342 (10 μg/ml) in TBS with 1% BSA and incubate one hour at room temperature. Wash cells with PBS.
5. Measure staining using the In-cell Analyzer system from GE Healthcare. Nuclei were located using the Hoecsht 33342 dye signal and H5 Antibody staining was quantified by measuring cy5 label. Nuclear intensity of H5 staining was plotted against the log of compound concentration for each compound and IC-50 values were calculated using the spotfire IC-50 calculator and confirmed by visual analysis.

CDK4 = CDK4 (Homo sapiens, UniProt P11802); experiment: CDK4 kinase assay (IMAP fluorescence polarization); format: biochemical
Procedure: as §1, §2, §5

CDK5 = CDK5 (Homo sapiens, UniProt Q00535); experiment: CDK5 kinase assay (IMAP fluorescence polarization); format: biochemical
Procedure: as §1, §2, §5

T3 sequence (P06493 whole entry): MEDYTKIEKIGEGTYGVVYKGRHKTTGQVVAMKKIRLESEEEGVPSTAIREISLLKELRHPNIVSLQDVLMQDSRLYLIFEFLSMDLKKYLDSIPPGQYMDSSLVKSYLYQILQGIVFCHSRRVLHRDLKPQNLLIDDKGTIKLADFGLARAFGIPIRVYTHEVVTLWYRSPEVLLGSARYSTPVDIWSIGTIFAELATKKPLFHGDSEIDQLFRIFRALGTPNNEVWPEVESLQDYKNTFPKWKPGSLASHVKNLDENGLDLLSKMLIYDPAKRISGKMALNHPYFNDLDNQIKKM
T3 sequence (P14635 whole entry partner): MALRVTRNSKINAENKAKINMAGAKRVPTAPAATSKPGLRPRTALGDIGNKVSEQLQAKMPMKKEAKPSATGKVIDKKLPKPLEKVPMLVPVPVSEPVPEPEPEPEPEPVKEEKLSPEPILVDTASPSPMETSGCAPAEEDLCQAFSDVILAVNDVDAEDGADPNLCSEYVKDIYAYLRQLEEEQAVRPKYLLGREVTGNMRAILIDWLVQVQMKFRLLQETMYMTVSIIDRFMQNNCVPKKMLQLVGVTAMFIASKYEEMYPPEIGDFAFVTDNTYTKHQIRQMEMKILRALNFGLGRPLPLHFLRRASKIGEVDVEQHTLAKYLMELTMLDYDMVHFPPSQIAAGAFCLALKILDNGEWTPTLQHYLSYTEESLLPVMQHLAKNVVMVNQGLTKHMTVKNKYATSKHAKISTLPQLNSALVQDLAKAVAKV
T1 sequence (P50750 whole entry): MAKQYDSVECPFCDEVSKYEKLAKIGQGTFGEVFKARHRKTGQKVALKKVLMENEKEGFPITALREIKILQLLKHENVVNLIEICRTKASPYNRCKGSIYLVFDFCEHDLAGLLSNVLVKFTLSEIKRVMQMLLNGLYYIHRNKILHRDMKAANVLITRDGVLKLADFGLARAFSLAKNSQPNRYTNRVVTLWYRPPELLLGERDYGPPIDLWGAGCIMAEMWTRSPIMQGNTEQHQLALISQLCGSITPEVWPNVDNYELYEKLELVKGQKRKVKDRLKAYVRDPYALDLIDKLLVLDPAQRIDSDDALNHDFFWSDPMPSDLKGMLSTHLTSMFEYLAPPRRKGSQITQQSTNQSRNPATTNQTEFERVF
T1 sequence (O60563 whole entry partner): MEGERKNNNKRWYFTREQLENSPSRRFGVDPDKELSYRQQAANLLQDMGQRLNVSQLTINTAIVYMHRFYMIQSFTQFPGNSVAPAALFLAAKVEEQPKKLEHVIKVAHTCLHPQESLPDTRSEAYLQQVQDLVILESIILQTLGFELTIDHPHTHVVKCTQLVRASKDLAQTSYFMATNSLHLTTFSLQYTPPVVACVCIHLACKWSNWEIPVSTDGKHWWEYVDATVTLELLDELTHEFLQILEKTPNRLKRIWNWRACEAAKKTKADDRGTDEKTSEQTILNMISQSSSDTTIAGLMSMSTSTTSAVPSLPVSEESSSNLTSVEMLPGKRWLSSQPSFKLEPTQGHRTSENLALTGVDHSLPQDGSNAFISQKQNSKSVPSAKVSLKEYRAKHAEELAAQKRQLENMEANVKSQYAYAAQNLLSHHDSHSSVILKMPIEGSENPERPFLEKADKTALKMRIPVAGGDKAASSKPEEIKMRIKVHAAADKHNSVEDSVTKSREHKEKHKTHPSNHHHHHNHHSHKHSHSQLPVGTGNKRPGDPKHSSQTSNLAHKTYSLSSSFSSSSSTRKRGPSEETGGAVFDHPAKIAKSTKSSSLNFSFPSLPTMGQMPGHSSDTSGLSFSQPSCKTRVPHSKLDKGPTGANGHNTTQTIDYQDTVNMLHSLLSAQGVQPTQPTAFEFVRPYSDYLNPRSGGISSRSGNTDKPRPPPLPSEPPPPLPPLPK
Chain of CDK5 (Q00535 whole entry, species assumed): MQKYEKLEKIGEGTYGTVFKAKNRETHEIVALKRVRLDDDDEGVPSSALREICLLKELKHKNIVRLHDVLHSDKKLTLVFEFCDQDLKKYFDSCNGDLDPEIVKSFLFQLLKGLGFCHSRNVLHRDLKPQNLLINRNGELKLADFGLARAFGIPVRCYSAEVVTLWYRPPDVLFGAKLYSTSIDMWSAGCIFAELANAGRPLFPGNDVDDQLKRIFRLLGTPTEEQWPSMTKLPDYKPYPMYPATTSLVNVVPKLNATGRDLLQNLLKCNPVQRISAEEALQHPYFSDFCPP
Chain of CDK5 (Q15078 whole entry partner, species assumed): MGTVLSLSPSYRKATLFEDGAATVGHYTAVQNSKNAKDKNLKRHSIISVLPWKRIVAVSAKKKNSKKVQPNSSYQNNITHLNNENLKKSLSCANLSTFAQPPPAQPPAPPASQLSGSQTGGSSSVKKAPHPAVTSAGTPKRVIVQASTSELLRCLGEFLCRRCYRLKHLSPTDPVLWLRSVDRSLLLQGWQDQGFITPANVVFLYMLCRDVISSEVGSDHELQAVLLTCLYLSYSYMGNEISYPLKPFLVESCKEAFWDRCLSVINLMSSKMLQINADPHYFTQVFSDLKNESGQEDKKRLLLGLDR
Chain of CDK4 (P11802 whole entry, species assumed): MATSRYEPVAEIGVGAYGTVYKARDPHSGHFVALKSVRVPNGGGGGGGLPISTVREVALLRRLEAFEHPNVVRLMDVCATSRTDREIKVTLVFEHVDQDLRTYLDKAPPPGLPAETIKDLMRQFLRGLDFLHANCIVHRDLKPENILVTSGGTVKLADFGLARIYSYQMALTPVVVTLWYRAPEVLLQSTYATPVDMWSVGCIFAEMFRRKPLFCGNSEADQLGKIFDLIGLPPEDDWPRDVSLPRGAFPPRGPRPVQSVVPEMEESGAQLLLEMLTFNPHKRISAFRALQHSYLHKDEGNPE
Chain of CDK4 (P24385 whole entry partner, species assumed): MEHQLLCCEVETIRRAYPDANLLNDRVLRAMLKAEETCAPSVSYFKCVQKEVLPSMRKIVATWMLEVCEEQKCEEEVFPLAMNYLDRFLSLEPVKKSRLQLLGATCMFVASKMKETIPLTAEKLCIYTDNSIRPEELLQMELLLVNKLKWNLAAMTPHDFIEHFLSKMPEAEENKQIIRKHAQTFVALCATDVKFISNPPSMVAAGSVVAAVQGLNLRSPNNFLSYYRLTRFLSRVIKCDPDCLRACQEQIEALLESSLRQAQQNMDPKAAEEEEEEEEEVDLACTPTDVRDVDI

| SMILES | pIC50 (CDK9/cyclinT1) | pIC50 (CDK2/cyclinA) | pIC50 (CDK1/cyclinB) | pIC50 [1] | pIC50 (CDK4) | pIC50 (CDK5) |
| --- | --- | --- | --- | --- | --- | --- |
| Cn1ccc2c(-c3ccnc(Nc4cccc(Cl)c4)n3)cccc21 [Compound 3, (3-Chloro-phenyl)-[4-(1-methyl-1H-indol-4-yl)-pyrimidin-2-yl]-amine] | > 5.30 | > 5.30 | 4.82 to 5.30 | – | – | – |
| Clc1cccc(Nc2nccc(-c3cccc4c3ccn4Cc3ccccc3)n2)c1 [Compound 6, [4-(1-Benzyl-1H-indol-4-yl)-pyrimidin-2-yl]-(3-chloro-phenyl)-amine] | > 5.30 | < 4.30 | < 4.30 | – | – | – |
| OCCn1ccc2c(-c3ccnc(Nc4cccc(Cl)c4)n3)cccc21 [Compound 7, 2-{4-[2-(3-chloroaniline)-pyrimidin-4-yl]-indol-1-yl}-ethanol] | > 5.30 | > 5.30 | 4.82 to 5.30 | – | – | – |
| OCCCn1ccc2c(-c3ccnc(Nc4cccc(Cl)c4)n3)cccc21 [Compound 8, 3-{4-[2-(3-Chloro-phenylamino)-pyrimidin-4-yl]-indol-1-yl}-propan-1-ol] | > 5.30 | > 5.30 | 4.82 to 5.30 | – | – | – |
| Clc1cccc(Nc2nccc(-c3cccc4c3ccn4CCN3CCOCC3)n2)c1 [Compound 9, (3-Chloro-phenyl)-{4-[1-(2-morpholin-4-yl-ethyl)-1H-indol-4-yl]-pyrimidin-2-yl}-amine] | > 5.30 | 4.82 to 5.30 | < 4.30 | 4.30 to 4.82 | – | – |
| CN(C)CCCn1ccc2c(-c3ccnc(Nc4cccc(Cl)c4)n3)cccc21 [Compound 11, (3-Chloro-phenyl)-{4-[1-(3-dimethylamino-propyl)-1H-indol-4-yl]-pyrimidin-2-yl}-amine] | > 5.30 | > 5.30 | 4.82 to 5.30 | – | – | – |
| O=C(Cn1ccc2c(-c3ccnc(Nc4cccc(Cl)c4)n3)cccc21)N1CCNCC1 [Compound 20, 2-{4-[2-(3-Chloro-phenylamino)-pyrimidin-4-yl]-indol-1-yl}-1-piperazin-1-yl-ethanone] | > 5.30 | < 4.30 | < 4.30 | – | – | – |
| NC1CCN(C(=O)Cn2ccc3c(-c4ccnc(Nc5cccc(Cl)c5)n4)cccc32)CC1 [Compound 21, 1-(4-Amino-piperidin-1-yl)-2-{4-[2-(3-chloro-phenylamino)-pyrimidin-4-yl]-indol-1-yl}-ethanone] | > 5.30 | 4.30 to 4.82 | < 4.30 | – | – | – |
| O=C(O)Cn1ccc2c(-c3ccnc(Nc4cccc(Cl)c4)n3)cccc21 [Compound 24, {4-[2-(3-Chloro-phenylamino)-pyrimidin-4-yl]-indol-1-yl}-acetic acid] | > 5.30 | 4.82 to 5.30 | 4.30 to 4.82 | – | – | – |
| Cc1cnc(Nc2cccc(Cl)c2)nc1-c1cccc2[nH]ccc12 [Compound 30, (3-Chloro-phenyl)-[4-(1H-indol-4-yl)-5-methyl-pyrimidin-2-yl]-amine] | > 5.30 | 4.30 to 4.82 | 4.30 to 4.82 | – | – | – |
| Cc1cnc(Nc2cccc(S(N)(=O)=O)c2)nc1-c1cccc2[nH]ccc12 [Compound 32, 3-[4-(1H-Indol-4-yl)-5-methyl-pyrimidin-2-ylamino]-benzenesulfonamide] | > 5.30 | > 5.30 | > 5.30 | – | > 5.30 | > 5.30 |
| COc1cnc(Nc2cccc(S(N)(=O)=O)c2)nc1-c1cccc2[nH]ccc12 [Compound 33, 3-[4-(1H-Indol-4-yl)-5-methoxy-pyrimidin-2-ylamino]-benzenesulfonamide] | > 5.30 | > 5.30 | > 5.30 | – | – | – |
| NS(=O)(=O)c1cccc(Nc2ncc(F)c(-c3cccc4[nH]ccc34)n2)c1 [Compound 34, 3-[5-Fluoro-4-(1H-indol-4-yl)-pyrimidin-2-ylamino]-benzenesulfonamide] | > 5.30 | > 5.30 | > 5.30 | – | – | – |

Second part, the compound after the results:

| pIC50 (CDK9/cyclinT1) | pIC50 (CDK2/cyclinA) | pIC50 (CDK1/cyclinB) | pIC50 [1] | pIC50 (CDK4) | pIC50 (CDK5) | SMILES |
| --- | --- | --- | --- | --- | --- | --- |
| > 5.30 | 4.82 to 5.30 | > 5.30 | – | – | – | CCn1ccc2c(-c3ccnc(Nc4cccc(Cl)c4)n3)cccc21 [Compound 4, (3-Chloro-phenyl)-[4-(1-ethyl-1H-indol-4-yl)-pyrimidin-2-yl]-amine] |
| > 5.30 | < 4.30 | < 4.30 | – | – | – | CCOC(=O)Cn1ccc2c(-c3ccnc(Nc4cccc(Cl)c4)n3)cccc21 [Compound 5, Ethyl {4-[2-(3-chloro-phenylamino)-pyrimidin-4-yl]-indol-1-yl}acetate] |
| > 5.30 | > 5.30 | > 5.30 | – | – | – | CN(C)CCn1ccc2c(-c3ccnc(Nc4cccc(Cl)c4)n3)cccc21 [Compound 10, (3-Chloro-phenyl)-{4-[1-(2-dimethylamino-ethyl)-1H-indol-4-yl]-pyrimidin-2-yl}-amine] |
| > 5.30 | > 5.30 | > 5.30 | – | – | – | CNC(=O)Cn1ccc2c(-c3ccnc(Nc4cccc(Cl)c4)n3)cccc21 [Compound 12, 2-{4-[2-(3-Chloro-phenylamino)-pyrimidin-4-yl]-indol-1-yl}-N-methyl-acetamide] |
| > 5.30 | > 5.30 | 4.82 to 5.30 | – | – | – | CN(C)C(=O)Cn1ccc2c(-c3ccnc(Nc4cccc(Cl)c4)n3)cccc21 [Compound 14, 2-{4-[2-(3-Chloro-phenylamino)-pyrimidin-4-yl]-indol-1-yl}-N,N-dimethyl-acetamide] |
| > 5.30 | > 5.30 | > 5.30 | – | – | – | CC(C)(C)NC(=O)Cn1ccc2c(-c3ccnc(Nc4cccc(Cl)c4)n3)cccc21 [Compound 15, N-tert-Butyl-2-{4-[2-(3-chloro-phenylamino)-pyrimidin-4-yl]-indol-1-yl}-acetamide] |
| > 5.30 | < 4.30 | < 4.30 | – | – | – | CC(C)CNC(=O)Cn1ccc2c(-c3ccnc(Nc4cccc(Cl)c4)n3)cccc21 [Compound 16, 2-{4-[2-(3-Chloro-phenylamino)-pyrimidin-4-yl]-indol-1-yl}-N-isobutyl-acetamide] |
| < 4.30 | < 4.30 | < 4.30 | – | – | – | O=C(Cn1ccc2c(-c3ccnc(Nc4cccc(Cl)c4)n3)cccc21)NCc1ccccc1 [Compound 17, N-Benzyl-2-{4-[2-(3-chloro-phenylamino)-pyrimidin-4-yl]-indol-1-yl}-acetamide] |
| > 5.30 | > 5.30 | 4.82 to 5.30 | – | – | – | O=C(Cn1ccc2c(-c3ccnc(Nc4cccc(Cl)c4)n3)cccc21)NCCO [Compound 18, 2-{4-[2-(3-Chloro-phenylamino)-pyrimidin-4-yl]-indol-1-yl}-N-(2-hydroxy-ethyl)-acetamide] |
| > 5.30 | < 4.30 | 4.82 to 5.30 | – | – | – | NCCNC(=O)Cn1ccc2c(-c3ccnc(Nc4cccc(Cl)c4)n3)cccc21 [Compound 19, N-(2-Amino-ethyl)-2-{4-[2-(3-chloro-phenylamino)-pyrimidin-4-yl]-indol-1-yl}-acetamide] |
| > 5.30 | > 5.30 | 4.82 to 5.30 | – | – | – | O=C(Cn1ccc2c(-c3ccnc(Nc4cccc(Cl)c4)n3)cccc21)NCC1CCCN1 (centres unmarked) [Compound 22, 2-{4-[2-(3-Chloro-phenylamino)-pyrimidin-4-yl]-indol-1-yl}-N-pyrrolidin-2-ylmethyl-acetamide] |
| > 5.30 | < 4.30 | 4.30 to 4.82 | – | – | – | O=C(Cn1ccc2c(-c3ccnc(Nc4cccc(Cl)c4)n3)cccc21)NCCN1CCCC1 [Compound 23, 2-{4-[2-(3-Chloro-phenylamino)-pyrimidin-4-yl]-indol-1-yl}-N-(2-pyrrolidin-1-yl-ethyl)-acetamide] |
| > 5.30 | > 5.30 | > 5.30 | – | 4.82 to 5.30 | > 5.30 | Cc1ccc2[nH]ccc2c1-c1ccnc(Nc2cccc(S(C)(=O)=O)c2)n1 [Compound 35, (3-Methanesulfonyl-phenyl)-[4-(5-methyl-1H-indol-4-yl)-pyrimidin-2-yl]-amine] |
